# Results from PMC9196953 (Drug development research, 1999).
# Read-outs that look alike come from different tables or passages of the source.
# Key:
# [1] = test system: A2B receptor; parameters: method as in Brackett and Daly, 1994; conditions: ref Brackett and Daly, 1994; cited from earlier work
# [2] = target: T1, rat A1 receptors (Rattus norvegicus, UniProt P25099); experiment: Displacement of [3H]R-PIA binding to A1 receptors in rat brain membranes; conditions: read-out: Ki rA1
# T1 construct: to A1 receptors from rat cerebral cortical membranes; from tissue; host or cells: rat cerebral cortical membranes
# T1 sequence (P25099 1-326): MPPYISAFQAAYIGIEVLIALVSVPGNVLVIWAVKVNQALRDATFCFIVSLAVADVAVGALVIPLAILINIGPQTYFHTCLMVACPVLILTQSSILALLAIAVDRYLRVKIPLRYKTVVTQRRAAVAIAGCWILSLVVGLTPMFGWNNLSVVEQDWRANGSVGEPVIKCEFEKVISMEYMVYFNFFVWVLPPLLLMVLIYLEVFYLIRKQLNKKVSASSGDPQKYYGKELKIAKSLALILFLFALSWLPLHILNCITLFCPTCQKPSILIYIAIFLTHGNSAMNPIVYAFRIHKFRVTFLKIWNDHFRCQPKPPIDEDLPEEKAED
# Procedure: (§1) All nonradioactive compounds were initially dissolved in DMSO and diluted with buffer to the final concentration, where the amount of DMSO never exceeded 2%. Incubations were terminated by rapid filtration over Whatman GF/B filters using a Brandell cell harvester. The tubes were rinsed three times with 3 mL buffer each.
# (§2) At least six different concentrations of competitor, spanning 3 orders of magnitude adjusted appropriately for the IC50 value of each compound, were used. IC50 values, calculated with the nonlinear regression method implemented in Graph-Pad Prism (San Diego, CA) were converted to apparent Ki values as described by [Linden [1982]]. Hill coefficients of the tested compounds were in the range of 0.8–1.1.
# (§3) At A2B receptors, two radioligand binding assays (Table 1) were used. Ki values of xanthine derivatives were determined in displacement of binding of the non-selective radioligands […], 8 (4-(2-[7-amino-2-{furyl}{1,2,4}triazolo{2,3-a}{1,3,5}tr nzyl)-8-phenyloxyacetate-1-propyl-xanthine), at human A2B receptors expressed in HEK-293 cell membranes [[Linden and Jacobson, 1998]]. In order to evaluate selectivity, selected derivatives were subjected to standard binding assays at A1, A2A, and A3 receptors. The initial screening utilized rat brain A1/A2A receptors (with radioligands [^3H]R-PIA and [^3H]CGS-21680), and selected compounds were examined at the recombinant human subtypes (Table 1), using [^3H]CPX ([^3H]8-cyclopentyl-1,3-dipropylxanthine) and ^125I-ZM 241385, ^125I-4-(2-[7-amino-2-[2-furyl][1,2,4]triazolo[2,3-a][1,3,5]triazin-5-yl-amino]ethyl)phenol) [[Palmer et al., 1996]].
# [3] = target: T2, rat A2A receptors (Rattus norvegicus, UniProt P30543); experiment: Displacement of [3H]CGS 21680 binding to A2A receptors in rat striatal membranes; conditions: read-out: Ki rA2A
# T2 construct: to A2A receptors from rat striatal membranes; from tissue; host or cells: rat striatal membranes
# T2 sequence (P30543 whole entry): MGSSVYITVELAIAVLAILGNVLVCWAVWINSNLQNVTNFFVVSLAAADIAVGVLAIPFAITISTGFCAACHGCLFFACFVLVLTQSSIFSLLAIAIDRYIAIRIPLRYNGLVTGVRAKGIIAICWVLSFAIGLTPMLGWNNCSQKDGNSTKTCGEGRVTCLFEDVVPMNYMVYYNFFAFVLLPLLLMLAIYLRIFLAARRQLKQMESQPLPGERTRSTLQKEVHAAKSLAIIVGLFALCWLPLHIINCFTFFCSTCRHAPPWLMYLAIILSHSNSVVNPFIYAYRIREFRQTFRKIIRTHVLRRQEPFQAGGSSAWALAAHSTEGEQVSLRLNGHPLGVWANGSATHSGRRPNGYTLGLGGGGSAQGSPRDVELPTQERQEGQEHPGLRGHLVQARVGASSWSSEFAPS
# Procedure: as §1, §2, §3
# [4] = target: T3, human A2B receptors (Homo sapiens, UniProt P29275); experiment: Binding at human A2B receptors expressed in HEK-293 cells vs [3H]ZM241385; conditions: for rA1/hA2B: ratio of Ki rat A1 to Ki human A2B
# T3 construct: expressed in transfected cells; host or cells: HEK-293
# T3 sequence (P29275 1-332): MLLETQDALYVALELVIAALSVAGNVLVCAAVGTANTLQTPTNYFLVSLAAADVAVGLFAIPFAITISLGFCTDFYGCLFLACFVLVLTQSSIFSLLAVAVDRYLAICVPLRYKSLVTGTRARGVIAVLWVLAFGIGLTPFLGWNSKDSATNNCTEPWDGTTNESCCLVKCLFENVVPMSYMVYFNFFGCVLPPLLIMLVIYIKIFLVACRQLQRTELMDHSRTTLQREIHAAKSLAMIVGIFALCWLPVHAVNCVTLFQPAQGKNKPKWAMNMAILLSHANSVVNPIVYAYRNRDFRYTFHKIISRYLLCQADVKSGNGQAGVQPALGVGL
# Procedure: The plasmid was amplified in competent JM109 cells and plasmid DNA isolated using Wizard Megaprep columns (Promega Corp., Madison, WI).
# Colonies were selected by growth of cells in 0.6 mg/mL G418. Transfected cells were maintained in DMEM supplemented with Hams F12 nutrient mixture (1/1), 10% newborn calf serum, 2 mM glutamine, and containing 50 IU/mL penicillin, 50 μg/mL streptomycin, and 0.2 mg/mL Geneticin (G418, Boehringer Mannheim, Indianapolis, IN).
# Confluent monolayers of HEK-A2B cells were washed with PBS followed by ice-cold Buffer A (10 mM HEPES, 10 mM EDTA, pH 7.4) with protease inhibitors ([…] benzamidine, […], and […] of each aprotinin, pepstatin, and leupeptin). The cells were homogenized in a Polytron (Brinkmann) for 20 sec, centrifuged at 30,000g, and the pellets washed twice with buffer HE (10 mM HEPES, 1 mM EDTA, pH 7.4 with protease inhibitors). The final pellet was resuspended in buffer HE, supplemented with 10% sucrose and frozen in aliquots at −80°C. For binding assays, membranes were thawed and diluted 5–10-fold with HE to a final protein concentration of approximately 1 mg/mL. […] After incubating for 20 min at room temperature, 50 mL of 10 mg/mL Na-metabisulfite in water was added the quench the reaction. The reaction products were applied to a C18 HPLC column using 4 mM phosphate, pH 6.0/methanol. […] The incubation time was 3 h at 21°C. […] Membranes were filtered on Whatman GF/C filters using a Brandell cell harvester (Gaithersburg, MD) and washed three times over 15–20 sec with ice-cold buffer (10 mM Tris, 1 mM MgCl2, pH 7.4). […] Data from replicate experiments are tabulated as means ± SEM.
# At A2B receptors, two radioligand binding assays (Table 1) were used. […] In order to evaluate selectivity, selected derivatives were subjected to standard binding assays at A1, A2A, and A3 receptors.
# [5] = target: T4, human A3 receptors (Homo sapiens, UniProt P0DMS8); experiment: Displacement of [125I]AB-MECA binding at human A3 receptors expressed in HEK cells; conditions: read-out: Ki hA3
# T4 construct: expressed in transfected cells; host or cells: HEK-293
# T4 sequence (P0DMS8 1-318): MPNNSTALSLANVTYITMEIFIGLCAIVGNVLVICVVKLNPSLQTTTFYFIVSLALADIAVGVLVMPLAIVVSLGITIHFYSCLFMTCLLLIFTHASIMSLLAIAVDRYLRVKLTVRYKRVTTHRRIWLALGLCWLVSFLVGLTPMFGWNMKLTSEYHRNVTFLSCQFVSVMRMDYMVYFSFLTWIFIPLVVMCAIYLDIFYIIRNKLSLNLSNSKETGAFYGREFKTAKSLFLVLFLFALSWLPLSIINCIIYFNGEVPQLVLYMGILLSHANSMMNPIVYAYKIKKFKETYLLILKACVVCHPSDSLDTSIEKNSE
# Procedure: as §3
# [6] = target: T5, human A1 receptors (Homo sapiens, UniProt P30542); experiment: Binding at recombinant human A1 receptors expressed in HEK-293 cells vs [3H]CPX; conditions: recombinant human A1 in HEK-293 cells
# T5 construct: expressed in transfected cells; host or cells: HEK-293
# T5 sequence (P30542 1-326): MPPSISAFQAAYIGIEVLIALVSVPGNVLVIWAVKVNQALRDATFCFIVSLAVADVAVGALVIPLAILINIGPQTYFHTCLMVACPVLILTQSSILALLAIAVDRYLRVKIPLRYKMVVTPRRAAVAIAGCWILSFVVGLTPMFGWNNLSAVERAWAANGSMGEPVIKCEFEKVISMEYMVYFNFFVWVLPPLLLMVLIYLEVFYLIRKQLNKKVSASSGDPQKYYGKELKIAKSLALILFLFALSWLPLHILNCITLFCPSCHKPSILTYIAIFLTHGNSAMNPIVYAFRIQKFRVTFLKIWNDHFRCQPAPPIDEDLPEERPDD
# Procedure: as §1, §2, §3
# [7] = target: T6, human A2A receptors (Homo sapiens, UniProt P29274); experiment: Binding at recombinant human A2A receptors expressed in HEK-293 cells vs [125I]ZM241385; conditions: recombinant human A2A in HEK-293 cells, read-out: Ki A2A (h) (converted)
# T6 construct: expressed in transfected cells; host or cells: HEK-293
# T6 sequence (P29274 whole entry): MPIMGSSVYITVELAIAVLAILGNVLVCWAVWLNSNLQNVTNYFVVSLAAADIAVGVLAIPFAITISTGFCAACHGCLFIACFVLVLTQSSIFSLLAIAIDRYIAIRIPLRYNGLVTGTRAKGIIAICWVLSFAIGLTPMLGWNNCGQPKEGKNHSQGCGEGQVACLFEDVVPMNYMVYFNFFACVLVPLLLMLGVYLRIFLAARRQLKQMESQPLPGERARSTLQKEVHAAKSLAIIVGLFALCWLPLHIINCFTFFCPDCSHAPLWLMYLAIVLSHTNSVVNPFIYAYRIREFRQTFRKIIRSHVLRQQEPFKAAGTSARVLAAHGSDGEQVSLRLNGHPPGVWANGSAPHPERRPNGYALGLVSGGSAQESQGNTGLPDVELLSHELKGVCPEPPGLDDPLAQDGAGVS
# Procedure: as §1, §2, §3
# [8] = target: T3, human A2B receptors; conditions: ref Jacobson et al., 1999, cited from earlier work
# [9] = HEK-293 cells, vs [3H]ZM241385, read-out: Ki hA2B
Ki [2],Ki [3],"Ki [4, 9]",rA1/hA2B [4],Ki [5],Ki [6],Ki [7],"Ki ([4]; rounded values given in text, read-out: Ki at human A2B receptors)",Compound,selectivity as antagonist at the A2B receptor vs. other subtypes [1],"selectivity for human A2B receptors vs. A1, A2A, and A3 adenosine receptors [8]","enhancement of affinity at A2B receptors ([8]; relative to theophylline, 2)"
,,,,,,,,O=c1nc2[nH]c3ccccc3nc-2c(=O)[nH]1 [Alloxazine],approximately one order of magnitude,,
53.5 ± 6.5 nM,440 ± 106 nM,13 ± 3.5 nM,4.1,726 ± 245 nM,149 nM,178 nM,,CCCn1c(=O)c2[nH]c(-c3ccc(OCC(=O)NN4C(=O)CC[C@H](NC(=O)C(F)(F)F)C4=O)cc3)nc2n(CCC)c1=O [Compound 24b],,,
36.4 ± 6.2 nM,689 ± 477 nM,10 ± 3 nM,3.6,370 ± 190 nM,129 nM,301 nM,,"CCCn1c(=O)c2[nH]c(-c3ccc(OCC(=O)NN4C(=O)C5CC=CCC5C4=O)cc3)nc2n(CCC)c1=O (stereo not drawn) [Compound 18b, 8-[4-[(Carboxymethyl)oxy]phenyl]-1,3-di-(n-propyl)xanthine N,N-(cis-1,2,3,6-Tetrahydrophthaloyl)-hydrazide]",,,
55.9 ± 25.1 nM,805 ± 44 nM,18.6 ± 6.1 nM,3.0,766 ± 176 nM,75.2 nM,27.2 nM,,"CCCn1c(=O)c2[nH]c(-c3ccc(OCC(=O)NN4C(=O)CCC4=O)cc3)nc2n(CCC)c1=O [Compound 10, 8-[4-[(Carboxymethyl)oxy]phenyl]-1,3-di-(n-propyl)xanthine N,N-Succinylhydrazide]",,,
,,,,,,,,CCCn1c(=O)c2[nH]c(-c3ccc(OCC(=O)ON4C(=O)CCC4=O)cc3)nc2n(CCC)c1=O [Compound 4d],,approximately 20 fold,
,,,,,,,,Cn1c(=O)c2[nH]c(-c3ccccc3)nc2n(C)c1=O [Compound 3],,,22 fold
14 ± 2.3 nM,135 ± 39 nM,22 ± 5.5 nM,0.6,200 ± 45 nM,,,,"CCCn1c(=O)c2[nH]c(-c3ccc(OCC(=O)NN4C(=O)CCCC4=O)cc3)nc2n(CCC)c1=O [Compound 22, 8-[4-[(Carboxymethyl)oxy]phenyl]-1,3-di-(n-propyl)xanthine N,N-Glutarylhydrazide]",,,
61.9 ± 11.3 nM,415 ± 157 nM,35.8 ± 0.7 nM,1.7,245 ± 45 nM,,,,"CCCn1c(=O)c2[nH]c(-c3ccc(OCC(=O)NN4C(=O)C5=C(CCCC5)C4=O)cc3)nc2n(CCC)c1=O [Compound 20b, 8-[4-[(Carboxymethyl)oxy]phenyl]-1,3-di-(n-propyl)xanthine N,N-(3,4,5,6-Tetrahydrophthaloyl)-hydrazide]",,,
81.7 ± 31.2 nM,708 ± 169 nM,78.5 ± 20.5 nM,1.0,1180 nM,,,,"CCCn1c(=O)c2[nH]c(-c3ccc(OCC(=O)NNC(=O)C4=C(C(=O)O)CCC4)cc3)nc2n(CCC)c1=O [Compound 19a, 8-[4-[(Carboxymethyl)oxy]phenyl]-1,3-di-(n-propyl)xanthine N-[2-((1-Carboxy)-1-cyclopentene)-carbonyl]hydrazide]",,,
3.87 ± 1.2 nM,21.4 ± 6.1 nM,3.86 ± 0.7 nM,1.0,151 ± 99 nM,,,,"CCCn1c(=O)c2[nH]c(-c3ccc(OCC(=O)NN4C(=O)CCC(c5ccccc5)C4=O)cc3)nc2n(CCC)c1=O (stereo not drawn) [Compound 12, 8-[4-[(Carboxymethyl)oxy]phenyl]-1,3-di-(n-propyl)xanthine N,N-[(2-Phenyl)glutaryl]hydrazide]",,,
41.2 ± 16.6 nM,164 ± 61 nM,25.7 ± 5.5 nM,1.6,290 ± 88 nM,,,,"CCCn1c(=O)c2[nH]c(-c3ccc(OCC(=O)NN4C(=O)CC(O)CC4=O)cc3)nc2n(CCC)c1=O [Compound 23, 8-[4-[(Carboxymethyl)oxy]phenyl]-1,3-di-(n-propyl)xanthine N,N-(3-Hydroxy)glutarylhydrazide]",,,
36 ± 6.6 nM,609 ± 95 nM,10.8 ± 5 nM,3.3,323 ± 47 nM,200 nM,830 nM,11 nM,"CCCn1c(=O)c2[nH]c(-c3ccc(OCC(=O)NNC(=O)CNC(=O)CNC(=O)OCc4ccccc4)cc3)nc2n(CCC)c1=O [Compound 27, 8-[4-[(Carboxymethyl)oxy]phenyl]-1,3-di-(n-propyl)xanthine N-(N-Benzyloxycarbonyl-glycylglycinyl)hydrazide]",,,
